Measurements as given in the NIST ThermoML archive (doi:10.1021/je301164d).
Numbers after ± are expanded uncertainties.

Settings: Fluid (supercritical or subcritical phases)

CC(F)(F)CC(F)(F)F [1,1,1,3,3-pentafluorobutane]
Settings	speed of sound [m/s]
250 K, 1105.2 kPa	921.65 ± 0.41
250 K, 2105.8 kPa	926.73 ± 0.41
250 K, 3106.3 kPa	931.74 ± 0.41
250 K, 4106.9 kPa	936.7 ± 0.41
250 K, 5107.4 kPa	941.59 ± 0.41
250 K, 6108.3 kPa	946.43 ± 0.42
250 K, 7108.9 kPa	951.22 ± 0.42
250 K, 8108.1 kPa	955.95 ± 0.42
250 K, 9108.8 kPa	960.64 ± 0.42
250 K, 10110 kPa	965.28 ± 0.43
250 K, 12611 kPa	976.67 ± 0.43
250 K, 15113 kPa	987.78 ± 0.43
250 K, 17614 kPa	998.62 ± 0.44
250 K, 20116 kPa	1009.2 ± 0.44
250 K, 25120 kPa	1029.8 ± 0.45
250 K, 30123 kPa	1049.5 ± 0.46
250 K, 35127 kPa	1068.4 ± 0.47
250 K, 40130 kPa	1086.7 ± 0.48
250 K, 45133 kPa	1104.4 ± 0.49
250 K, 50137 kPa	1121.5 ± 0.5
260 K, 1104.3 kPa	881.57 ± 0.39
260 K, 2104.8 kPa	886.96 ± 0.39
260 K, 3105.3 kPa	892.27 ± 0.4
260 K, 4105.9 kPa	897.52 ± 0.4
260 K, 5106.3 kPa	902.7 ± 0.4
260 K, 6107.9 kPa	907.82 ± 0.4
260 K, 7109.2 kPa	912.89 ± 0.4
260 K, 8109.9 kPa	917.88 ± 0.41
260 K, 9110.7 kPa	922.82 ± 0.41
260 K, 10112 kPa	927.71 ± 0.41
260 K, 12613 kPa	939.68 ± 0.42
260 K, 15115 kPa	951.34 ± 0.42
260 K, 17617 kPa	962.7 ± 0.43
260 K, 20118 kPa	973.79 ± 0.43
260 K, 25122 kPa	995.21 ± 0.44
260 K, 30126 kPa	1015.7 ± 0.45
260 K, 35129 kPa	1035.4 ± 0.46
260 K, 40133 kPa	1054.3 ± 0.47
260 K, 45136 kPa	1072.6 ± 0.48
260 K, 50140 kPa	1090.3 ± 0.48
260 K, 60146 kPa	1124.1 ± 0.5
260 K, 70153 kPa	1155.9 ± 0.52
260 K, 80160 kPa	1186.1 ± 0.53
260 K, 90167 kPa	1214.9 ± 0.55
260 K, 100174 kPa	1242.4 ± 0.56
280 K, 1104.4 kPa	803.31 ± 0.36
280 K, 2104.9 kPa	809.41 ± 0.36
280 K, 3105.4 kPa	815.42 ± 0.36
280 K, 4106 kPa	821.34 ± 0.37
280 K, 5106.6 kPa	827.16 ± 0.37
280 K, 6107.8 kPa	832.89 ± 0.37
280 K, 7108.5 kPa	838.55 ± 0.38
280 K, 8109.3 kPa	844.12 ± 0.38
280 K, 9110.2 kPa	849.62 ± 0.38
280 K, 10111 kPa	855.04 ± 0.38
280 K, 12613 kPa	868.29 ± 0.39
280 K, 15114 kPa	881.13 ± 0.39
280 K, 17616 kPa	893.6 ± 0.4
280 K, 20118 kPa	905.71 ± 0.4
280 K, 25121 kPa	929 ± 0.41
280 K, 30124 kPa	951.17 ± 0.42
280 K, 35128 kPa	972.34 ± 0.43
280 K, 40131 kPa	992.62 ± 0.44
280 K, 45135 kPa	1012.1 ± 0.45
280 K, 50138 kPa	1030.9 ± 0.46
280 K, 60145 kPa	1066.6 ± 0.48
280 K, 70152 kPa	1100.2 ± 0.49
280 K, 80159 kPa	1131.9 ± 0.51
280 K, 90166 kPa	1162 ± 0.52
280 K, 100172 kPa	1190.6 ± 0.54
300 K, 1104.5 kPa	727.1 ± 0.33
300 K, 2105 kPa	734.06 ± 0.33
300 K, 3105.5 kPa	740.9 ± 0.34
300 K, 4106 kPa	747.61 ± 0.34
300 K, 5107 kPa	754.19 ± 0.34
300 K, 6107.6 kPa	760.65 ± 0.34
300 K, 7107.1 kPa	766.96 ± 0.35
300 K, 8107.8 kPa	773.21 ± 0.35
300 K, 9108.4 kPa	779.34 ± 0.35
300 K, 10110 kPa	785.37 ± 0.35
300 K, 12612 kPa	800.06 ± 0.36
300 K, 15114 kPa	814.23 ± 0.37
300 K, 17616 kPa	827.91 ± 0.37
300 K, 20117 kPa	841.15 ± 0.38
300 K, 25121 kPa	866.44 ± 0.39
300 K, 30125 kPa	890.34 ± 0.4
300 K, 35129 kPa	913.06 ± 0.41
300 K, 40132 kPa	934.74 ± 0.42
300 K, 45136 kPa	955.48 ± 0.43
300 K, 50139 kPa	975.38 ± 0.44
300 K, 60146 kPa	1013.1 ± 0.46
300 K, 70153 kPa	1048.3 ± 0.47
300 K, 80160 kPa	1081.4 ± 0.49
300 K, 90167 kPa	1112.7 ± 0.5
300 K, 100174 kPa	1142.5 ± 0.52
319.99 K, 2104.9 kPa	660.37 ± 0.3
319.99 K, 3105.5 kPa	668.24 ± 0.31
319.99 K, 4106.3 kPa	675.92 ± 0.31
319.99 K, 5107.7 kPa	683.41 ± 0.31
319.99 K, 6108.6 kPa	690.74 ± 0.32
319.99 K, 7109.3 kPa	697.91 ± 0.32
319.99 K, 8110 kPa	704.93 ± 0.32
320 K, 9111.2 kPa	711.77 ± 0.33
320 K, 10112 kPa	718.52 ± 0.33
320 K, 12614 kPa	734.86 ± 0.34
320 K, 15115 kPa	750.5 ± 0.34
320 K, 17617 kPa	765.53 ± 0.35
320 K, 20119 kPa	779.98 ± 0.35
320 K, 25123 kPa	807.44 ± 0.36
320 K, 30126 kPa	833.19 ± 0.38
320 K, 35130 kPa	857.51 ± 0.39
320 K, 40134 kPa	880.59 ± 0.4
320 K, 45137 kPa	902.59 ± 0.41
320 K, 50141 kPa	923.63 ± 0.42
